In paper PMC5681660, “Reduced hepatitis B and D viral entry using clinically applied drugs as novel inhibitors of the bile acid transporter NTCP” (Scientific Reports, 2017) one finds Ranking score and B-score functional assay data, which are given here for 49 compounds.

Counter-ions that a name gives are not always drawn.

This assay concerns the target T1, human NTCP (Homo sapiens, UniProt Q14973).
T1 sequence (Q14973 1-349): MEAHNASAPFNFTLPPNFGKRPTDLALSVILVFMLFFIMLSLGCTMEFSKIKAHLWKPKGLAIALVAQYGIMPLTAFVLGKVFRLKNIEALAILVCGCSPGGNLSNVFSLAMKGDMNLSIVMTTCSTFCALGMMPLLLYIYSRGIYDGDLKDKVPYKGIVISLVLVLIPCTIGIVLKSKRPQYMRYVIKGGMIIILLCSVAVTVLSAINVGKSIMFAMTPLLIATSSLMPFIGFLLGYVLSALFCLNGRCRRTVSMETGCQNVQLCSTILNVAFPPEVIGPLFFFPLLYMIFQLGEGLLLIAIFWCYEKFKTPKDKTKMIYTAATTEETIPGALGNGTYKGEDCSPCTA
Description: Screening taurocholate uptake assay (96-well, [14C]taurocholate, 10 µM drug). The settings on record: for B-score functional assay: screening taurocholate uptake, 10 µM drug.

[1] abbreviates: combined ranking of functional and binding screening assays.
Where [2] appears, read: ranking over the functional and the binding screening assay.

`CCc1cccc(CC)c1NC(=O)CN(CC(=O)O)CC(=O)O` [Etifenin] came in with a B-score functional assay of -0.065. For the same compound, the Ranking score under setting [1] was determined as 532.717.
Compound Verteporfin gave a B-score functional assay of -2.252. This compound yielded a Ranking score under setting [2] of 33.9116.
Regarding `O.O=C1C(O)=C(O)C(=O)C(O)=C1O` [Tetrahydroxy-1,4-quinone hydrate], the B-score functional assay was -0.017. The Ranking score under setting [1] is 603.838.
In turn, `O=C(Nc1cccc2c(=O)cc(-c3nnn[nH]3)oc12)c1ccc(OCCCCc2ccccc2)cc1` [Pranlukast] registered a B-score functional assay of -8.959. The compound also came in with a Ranking score under setting [2] of 43.359.
Turning to `Cc1c(O)c(=O)n(-c2ccccc2)n1C` [Antipyrine, 4-hydroxy], the B-score functional assay was -1.78. The compound further showed a Ranking score under setting [2] of 262.114.
Take `Cc1c(C)c2c(c(C)c1O)CCC(C)(C(=O)O)O2` (centres unmarked) [Trolox]: the B-score functional assay is -2.983. Under setting [2], this compound gave a Ranking score of 114.263.
For the compound `Nc1nc2[nH]cc(CCc3ccc(C(=O)N[C@@H](CCC(=O)O)C(=O)O)cc3)c2c(=O)[nH]1` [Pemetrexed disodium], the B-score functional assay was -1.364. Also, under setting [2], the Ranking score was found to be 234.359.
`COCC(=O)Nc1c(I)c(C(=O)NCC(O)CO)c(I)c(C(=O)N(C)CC(O)CO)c1I` (centres unmarked) [Iopromide] registered a B-score functional assay of -5.088. The compound further returned a Ranking score under setting [2] of 153.642.
For `CCc1nc(N)nc(N)c1-c1ccc(Cl)cc1` [Pyrimethamine], under setting [1], the Ranking score is recorded as 1154.81. For the same compound, the B-score functional assay (B-score) was 2.36.
Take `Cc1ncc([N+](=O)[O-])n1CC(O)CCl` (centres unmarked) [Ornidazole]: the B-score functional assay is -1.861. Further, the Ranking score under setting [2] turned out to be 260.803.
`COc1cc2nc(N3CCN(C(=O)C4CCCO4)CC3)nc(N)c2cc1OC` (centres unmarked) [Terazosin hydrochloride]: the B-score functional assay was -0.092. Further, the Ranking score under setting [1] was 497.689.
In the case of `CNCC[C@@H](Oc1ccccc1C)c1ccccc1` [Tomoxetine hydrochloride], the B-score functional assay is listed as 3.106. Besides, the Ranking score under setting [1] is on record as 493.908.
Compound `CCOC(=O)O[C@]1(C(=O)COC(=O)CC)CC[C@H]2[C@@H]3CCC4=CC(=O)C=C[C@]4(C)[C@H]3[C@@H](O)C[C@@]21C` [Prednicarbate] registered a B-score functional assay of -1.448. The compound further showed a Ranking score under setting [2] of 140.036.
The like results for `CCCCCN(CCCCC)C(=O)C(CCC(=O)[O-])NC(=O)c1ccc(Cl)c(Cl)c1.[Na+]` (centres unmarked) [Lorglumide sodium salt] were, in that order, -3.59 and 164.012.
In turn, `C=CC1=C(C(=O)O)N2C(=O)[C@@H](NC(=O)/C(=N\O)c3csc(N)n3)[C@H]2SC1` [Cefdinir] showed a B-score functional assay of -0.454. Also, the Ranking score under setting [1] is 598.124.
In the case of `COc1cc2ncnc(Nc3ccc(F)c(Cl)c3)c2cc1OCCCN1CCOCC1` [Gefitinib], the B-score functional assay was 0.784. The Ranking score under setting [1] is 629.087.
The compound `N=C(N)NC(=O)Cc1c(Cl)cccc1Cl` [Guanfacine hydrochloride] showed a B-score functional assay of 0.703. The Ranking score under setting [1] stood at 635.421.
In the case of `CC(N)CCCC(C)(C)O` (centres unmarked) [Heptaminol hydrochloride], the Ranking score under setting [1] came out at 1189.85. The B-score functional assay (B-score) stood at 2.111.
As for `Cc1cc(C(C#N)c2ccc(Cl)cc2)c(Cl)cc1NC(=O)c1cc(I)cc(I)c1O` (centres unmarked) [Closantel], the B-score functional assay is -0.508. Besides, the Ranking score under setting [2] is 203.568.
`CCOC(=O)C1=C(C)NC(C)=C(C(=O)OC)C1c1cccc(Cl)c1Cl` (centres unmarked) [Felodipine] returned a B-score functional assay of 1.073. Also, under setting [1], the Ranking score is 465.188.
The compound `CCN1CCN(C(=O)N[C@@H](C(=O)N[C@@H]2C(=O)N3[C@@H]2SC(C)(C)[C@@H]3C(=O)O)c2ccccc2)C(=O)C1=O` [Piperacillin sodium salt] displayed a B-score functional assay of -0.194. Moreover, under setting [1], the Ranking score is recorded as 549.729.
In turn, `O=C1NCN(c2ccccc2)C12CCN(CCCC(c1ccc(F)cc1)c1ccc(F)cc1)CC2` [Fluspirilen] displayed a B-score functional assay of 0.19. In addition, under setting [1], the Ranking score is reported as 517.364.
`C[C@@H]1CCC[C@H](C)N1NC(=O)c1ccc(Cl)c(S(N)(=O)=O)c1` [Clopamide] came in with a B-score functional assay of -0.164. This compound registered a Ranking score under setting [2] of 216.069.
The compound `OC(Cn1cncn1)(Cn1cncn1)c1ccc(F)cc1F` [Fluconazole] gave a B-score functional assay of 1.083. Moreover, under setting [1], the Ranking score was found to be 553.146.
The compound `C[C@]12CC[C@H]3C(=CCc4cc(O)ccc43)[C@@H]1CCC2=O` [Equilin] had a B-score functional assay of -2.643. Under setting [2], this compound gave a Ranking score of 264.641.
`Cc1cccc(C)c1NC(=O)CN1CCN(CCCC(c2ccc(F)cc2)c2ccc(F)cc2)CC1` [Lidoflazine]: the B-score functional assay is recorded as -0.817. For the same compound, the Ranking score under setting [1] amounted to 479.588.
Consider `CN(C)CCN1C(=O)c2ccccc2N(C)c2ccccc21.Cl` [Dibenzepine hydrochloride], for which the B-score functional assay is on record as -0.713. Also, the Ranking score under setting [1] was determined as 501.825.
Compound `Nc1c2c(nc3ccccc13)CCCC2O.O=C(O)/C=C\C(=O)O` (racemic) [Hydroxytacrine maleate (R,S)] came in with a B-score functional assay of 2.059. The compound further gave a Ranking score under setting [2] of 180.3.
`CC(=O)[C@@]1(O)CC[C@H]2[C@@H]3C[C@H](C)C4=CC(=O)C=C[C@]4(C)[C@@]3(F)[C@@H](O)C[C@@]21C` [Fluorometholone] had a B-score functional assay of -0.26. Further, the Ranking score under setting [1] was 616.409.
On to `Oc1c(Cl)cc(Cl)c2cccnc12` [Chloroxine], for which the B-score functional assay is -0.339. For the same compound, the Ranking score under setting [1] came out at 538.476.
Take `CCOC(=O)N1CCC(=C2c3ccc(Cl)cc3CCc3cccnc32)CC1` [Loratadine]: the B-score functional assay was -3.222. Further, the Ranking score under setting [2] is given as 78.3326.
Compound `CCc1nn(CCCN2CCN(c3cccc(Cl)c3)CC2)c(=O)n1CCOc1ccccc1` [Nefazodone HCl] yielded a B-score functional assay of -1.389. The compound also came in with a Ranking score under setting [2] of 227.321.
With `CC(=O)OCC(CCn1cnc2cnc(N)nc21)COC(C)=O` [Famciclovir], the B-score functional assay turned out to be 0.016. In addition, the Ranking score under setting [1] came out at 539.09.
The matching figures for `CN(Cc1cnc2nc(N)nc(N)c2n1)c1ccc(C(=O)N[C@@H](CCC(=O)O)C(=O)O)cc1` (racemic) [Amethopterin (R,S)]: -0.795 and 579.365.
On to `CN1[C@@H]2CC[C@H]1C[C@@H](OC(=O)c1c[nH]c3ccccc13)C2` [Tropisetron HCl], for which the B-score functional assay is reported as -1.094. For the same compound, under setting [1], the Ranking score turned out to be 543.985.
`CC(C)(O/N=C(\C(=O)N[C@@H]1C(=O)N2C(C(=O)[O-])=C(C[n+]3ccccc3)CS[C@H]12)c1csc(N)n1)C(=O)O` [Ceftazidime pentahydrate] yielded a B-score functional assay of -1.028. Also, under setting [1], the Ranking score worked out at 560.357.
In turn, `CCc1cc(C(N)=S)ccn1` [Ethionamide] came in with a B-score functional assay of 0.084. Under setting [2], this compound yielded a Ranking score of 210.286.
The compound `CC(=O)N[C@@H](CC(C)C)C(=O)O` [N-Acetyl-L-leucine] displayed a B-score functional assay of -1.591. For the same compound, the Ranking score under setting [1] is listed as 463.866.
The like results for `C[C@]12CCC(=O)C=C1CC[C@@H]1[C@@H]2[C@@H](O)C[C@@]2(C)[C@H]1CC[C@]2(O)C(=O)CO` [Hydrocortisone base] were, in that order, 0.004 and 557.864.
`CC1(C)O[C@@H]2C[C@H]3[C@@H]4CCC5=CC(=O)CC[C@]5(C)[C@@]4(F)[C@@H](O)C[C@]3(C)[C@]2(C(=O)CCl)O1` [Halcinonide] showed a B-score functional assay of 0.608. Under setting [1], the Ranking score turned out to be 634.219.
For `CN1CCN(C(c2ccccc2)c2ccc(Cl)cc2)CC1` (centres unmarked) [Chlorcyclizine hydrochloride], the Ranking score under setting [1] is reported as 1232.56. Besides, where the note is “B-score”, the B-score functional assay was 4.014.
In the case of `O=C(CCCCCCC(=O)Nc1ccccc1)NO` [Vorinostat], the B-score functional assay is reported as -0.284. Moreover, the Ranking score under setting [1] came out at 583.003.
Consider `O=C1CC2(CCCC2)CC(=O)N1CCCCN1CCN(c2ncccn2)CC1` [Buspirone hydrochloride], for which the B-score functional assay is listed as -0.772. Under setting [2], the Ranking score is 215.998.
Take `O=c1cc(-c2ccc(O)c(O)c2)oc2cc(O)cc(O)c12` [Luteolin]: the B-score functional assay was -0.024. For the same compound, the Ranking score under setting [1] stood at 585.624.
Regarding `CCCc1ncc(C[n+]2ccccc2C)c(N)n1` [Amprolium hydrochloride], the B-score functional assay was -0.209. Besides, under setting [2], the Ranking score stood at 254.142.
In turn, `CSc1ccc2c(c1)N(CCC1CCCCN1C)c1ccccc1S2` (centres unmarked) [Thioridazine hydrochloride] came in with a B-score functional assay of 0.02. In addition, the Ranking score under setting [2] is 203.814.
For `Cc1cc(=O)n(-c2ccccc2)n1C` [Antipyrine], the B-score functional assay is on record as -1.958. For the same compound, under setting [2], the Ranking score is on record as 172.864.
Compound `CCCc1nc2c(C)cc(-c3nc4ccccc4n3C)cc2n1Cc1ccc(-c2ccccc2C(=O)O)cc1` [Telmisartan] came in with a B-score functional assay of -4.106. The compound also gave a Ranking score under setting [2] of 165.804.
The matching figures for `O=C(O)c1cc(-c2ccc(F)cc2F)ccc1O` [Diflunisal]: -4.496 and 134.198.
